Measurements taken from patent publication US9714244B2, “Substituted pyrido[4,3-d]pyrimidines as Wee-1 inhibitors” (ALMAC DISCOVERY LIMITED, priority 2013, dated 2017).

Legend:
[1] = test system: phospho-cdc2 (Tyr15) in HT-29 cells; experiment: Effect on phosphorylation of cdc2 at Tyr15 in HT-29 cells (PathScan ELISA); format: cell-based; settings: Homo sapiens, HT-29, 8 h; HT29 cells, eight hours incubation; read-out: HT29 pCDC2 activity
[2] = CLint estimates using human liver microsomes; format: in vitro ADME; settings: pH 7.4, read-out: HLM activity (HLM CLint)
[3] = target: ACVR1B (ALK4) (Homo sapiens (Human), UniProt P36896); experiment: SelectScreen Kinase Profiling: ACVR1B; format: biochemical; settings: 300-350 nM
Excerpt: (§1) Table 2 below highlights the selectivity of a representative compound of the invention against a panel of 50 kinases (assessed using the Invitrogen SelectScreen® Kinase Profiling Service).

[4] = target: BTK (Homo sapiens (Human), UniProt Q06187); experiment: SelectScreen Kinase Profiling: BTK; format: biochemical; settings: 300-350 nM
Excerpt: as §1

[5] = target: CHEK1 (CHK1) (Homo sapiens (Human), UniProt O14757); experiment: SelectScreen Kinase Profiling: CHEK1; format: biochemical; settings: 300-350 nM
Excerpt: as §1

[6] = target: EGFR (ErbB1) (Homo sapiens (Human), UniProt P00533); experiment: SelectScreen Kinase Profiling: EGFR; format: biochemical; settings: 300-350 nM
[7] = target: IKBKB (IKK beta) (Homo sapiens (Human), UniProt O14920); experiment: SelectScreen Kinase Profiling: IKBKB; format: biochemical; settings: 300-350 nM
Excerpt: as §1

[8] = target: IRAK4 (Homo sapiens (Human), UniProt Q9NWZ3); experiment: SelectScreen Kinase Profiling: IRAK4; format: biochemical; settings: 300-350 nM
Excerpt: as §1

[9] = target: JAK3 (Homo sapiens (Human), UniProt P52333); experiment: SelectScreen Kinase Profiling: JAK3; format: biochemical; settings: 300-350 nM
Excerpt: as §1

[10] = target: MAPK14 (p38 alpha) (Homo sapiens (Human), UniProt Q16539); experiment: SelectScreen Kinase Profiling: MAPK14; format: biochemical; settings: 300-350 nM
Excerpt: as §1

[11] = target: MET (cMet) (Homo sapiens (Human), UniProt P08581); experiment: SelectScreen Kinase Profiling: MET; format: biochemical; settings: 300-350 nM
Excerpt: as §1

[12] = target: NEK1 (Homo sapiens (Human), UniProt Q96PY6); experiment: SelectScreen Kinase Profiling: NEK1; format: biochemical; settings: 300-350 nM
Excerpt: as §1

[13] = target: PAK4 (Homo sapiens (Human), UniProt O96013); experiment: SelectScreen Kinase Profiling: PAK4; format: biochemical; settings: 300-350 nM
Excerpt: as §1

[14] = target: PDGFRB (PDGFR beta) (Homo sapiens (Human), UniProt P09619); experiment: SelectScreen Kinase Profiling: PDGFRB; format: biochemical; settings: 300-350 nM
[15] = target: PIM1 (Homo sapiens (Human), UniProt P11309); experiment: SelectScreen Kinase Profiling: PIM1; format: biochemical; settings: 300-350 nM
Excerpt: as §1

[16] = target: ROCK1 (Homo sapiens (Human), UniProt Q13464); experiment: SelectScreen Kinase Profiling: ROCK1; format: biochemical; settings: 300-350 nM
Excerpt: as §1

[17] = target: Src (Homo sapiens (Human), UniProt P12931); experiment: SelectScreen Kinase Profiling: SRC; format: biochemical; settings: 300-350 nM

Chain of NEK1 (Q96PY6 whole entry): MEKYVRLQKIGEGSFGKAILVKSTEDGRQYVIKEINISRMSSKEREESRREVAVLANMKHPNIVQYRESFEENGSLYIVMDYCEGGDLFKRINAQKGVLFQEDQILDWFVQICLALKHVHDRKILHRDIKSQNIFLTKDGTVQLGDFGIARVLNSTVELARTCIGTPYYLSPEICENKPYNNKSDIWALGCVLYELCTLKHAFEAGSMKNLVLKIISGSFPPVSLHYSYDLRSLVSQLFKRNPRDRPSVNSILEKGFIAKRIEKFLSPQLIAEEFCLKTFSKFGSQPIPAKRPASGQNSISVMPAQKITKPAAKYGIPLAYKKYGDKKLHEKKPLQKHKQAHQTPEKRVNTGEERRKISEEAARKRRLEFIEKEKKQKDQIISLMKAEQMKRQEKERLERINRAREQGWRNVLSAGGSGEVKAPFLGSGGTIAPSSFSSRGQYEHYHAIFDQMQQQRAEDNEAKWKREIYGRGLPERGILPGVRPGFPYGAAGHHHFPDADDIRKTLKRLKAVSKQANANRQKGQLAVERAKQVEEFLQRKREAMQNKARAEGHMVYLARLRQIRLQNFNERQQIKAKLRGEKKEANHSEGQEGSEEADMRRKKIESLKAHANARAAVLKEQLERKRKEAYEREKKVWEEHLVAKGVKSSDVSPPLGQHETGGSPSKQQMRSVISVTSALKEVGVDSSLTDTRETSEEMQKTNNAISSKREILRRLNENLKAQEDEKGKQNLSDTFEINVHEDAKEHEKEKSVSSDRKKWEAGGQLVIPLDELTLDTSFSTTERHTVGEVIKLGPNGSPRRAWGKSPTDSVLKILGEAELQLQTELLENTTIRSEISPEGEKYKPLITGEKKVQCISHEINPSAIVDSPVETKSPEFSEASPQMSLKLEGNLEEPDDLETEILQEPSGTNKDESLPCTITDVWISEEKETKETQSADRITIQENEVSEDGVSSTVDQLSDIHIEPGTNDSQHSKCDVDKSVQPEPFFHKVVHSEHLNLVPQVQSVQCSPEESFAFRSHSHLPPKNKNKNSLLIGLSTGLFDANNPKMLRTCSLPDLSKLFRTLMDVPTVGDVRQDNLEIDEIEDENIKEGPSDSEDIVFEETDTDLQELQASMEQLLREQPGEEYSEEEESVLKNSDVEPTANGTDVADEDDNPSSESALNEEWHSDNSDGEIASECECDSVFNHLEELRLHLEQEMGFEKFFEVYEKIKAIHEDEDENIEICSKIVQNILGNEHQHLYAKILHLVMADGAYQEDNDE
Chain of JAK3 (P52333 whole entry): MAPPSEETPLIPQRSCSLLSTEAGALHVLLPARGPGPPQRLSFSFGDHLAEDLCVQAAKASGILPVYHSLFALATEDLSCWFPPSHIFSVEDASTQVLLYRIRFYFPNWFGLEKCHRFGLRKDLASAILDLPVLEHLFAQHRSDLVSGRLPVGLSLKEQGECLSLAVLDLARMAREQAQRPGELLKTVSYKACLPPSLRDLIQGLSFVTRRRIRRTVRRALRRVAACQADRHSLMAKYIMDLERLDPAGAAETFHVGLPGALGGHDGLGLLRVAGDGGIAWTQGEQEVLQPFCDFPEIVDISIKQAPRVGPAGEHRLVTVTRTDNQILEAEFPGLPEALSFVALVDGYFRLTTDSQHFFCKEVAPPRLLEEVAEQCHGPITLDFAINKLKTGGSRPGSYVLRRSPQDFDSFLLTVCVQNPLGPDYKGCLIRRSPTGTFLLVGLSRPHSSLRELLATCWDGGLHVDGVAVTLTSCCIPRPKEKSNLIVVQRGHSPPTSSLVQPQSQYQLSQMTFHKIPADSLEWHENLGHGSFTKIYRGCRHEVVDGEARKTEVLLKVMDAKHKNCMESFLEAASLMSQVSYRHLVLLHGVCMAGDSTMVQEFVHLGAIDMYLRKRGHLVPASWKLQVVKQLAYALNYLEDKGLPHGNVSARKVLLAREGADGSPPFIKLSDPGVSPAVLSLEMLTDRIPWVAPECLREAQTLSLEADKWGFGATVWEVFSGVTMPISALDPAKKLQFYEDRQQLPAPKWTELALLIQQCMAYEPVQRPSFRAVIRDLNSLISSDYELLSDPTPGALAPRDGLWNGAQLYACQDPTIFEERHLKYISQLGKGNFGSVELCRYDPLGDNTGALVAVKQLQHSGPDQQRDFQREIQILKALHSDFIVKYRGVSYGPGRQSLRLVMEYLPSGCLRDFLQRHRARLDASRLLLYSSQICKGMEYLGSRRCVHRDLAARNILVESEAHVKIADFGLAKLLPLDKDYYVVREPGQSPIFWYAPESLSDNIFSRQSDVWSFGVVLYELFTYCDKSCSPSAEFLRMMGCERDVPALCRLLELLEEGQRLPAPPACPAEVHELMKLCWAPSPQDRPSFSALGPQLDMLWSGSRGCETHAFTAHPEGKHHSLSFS
Chain of ACVR1B (ALK4) (P36896 24-505): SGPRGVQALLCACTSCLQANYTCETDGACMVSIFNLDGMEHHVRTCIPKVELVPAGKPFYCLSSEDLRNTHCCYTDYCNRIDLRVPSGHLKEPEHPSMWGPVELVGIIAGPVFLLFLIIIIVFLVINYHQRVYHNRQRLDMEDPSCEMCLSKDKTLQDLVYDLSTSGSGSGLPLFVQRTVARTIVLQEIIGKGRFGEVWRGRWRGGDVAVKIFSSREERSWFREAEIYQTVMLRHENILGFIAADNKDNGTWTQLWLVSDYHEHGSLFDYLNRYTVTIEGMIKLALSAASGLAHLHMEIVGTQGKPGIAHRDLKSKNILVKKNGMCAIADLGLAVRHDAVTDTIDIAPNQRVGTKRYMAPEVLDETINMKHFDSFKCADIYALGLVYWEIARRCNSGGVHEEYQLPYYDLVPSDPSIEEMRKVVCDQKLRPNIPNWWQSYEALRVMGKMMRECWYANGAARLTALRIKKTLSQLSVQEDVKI
Chain of PDGFRB (PDGFR beta) (P09619 33-1106): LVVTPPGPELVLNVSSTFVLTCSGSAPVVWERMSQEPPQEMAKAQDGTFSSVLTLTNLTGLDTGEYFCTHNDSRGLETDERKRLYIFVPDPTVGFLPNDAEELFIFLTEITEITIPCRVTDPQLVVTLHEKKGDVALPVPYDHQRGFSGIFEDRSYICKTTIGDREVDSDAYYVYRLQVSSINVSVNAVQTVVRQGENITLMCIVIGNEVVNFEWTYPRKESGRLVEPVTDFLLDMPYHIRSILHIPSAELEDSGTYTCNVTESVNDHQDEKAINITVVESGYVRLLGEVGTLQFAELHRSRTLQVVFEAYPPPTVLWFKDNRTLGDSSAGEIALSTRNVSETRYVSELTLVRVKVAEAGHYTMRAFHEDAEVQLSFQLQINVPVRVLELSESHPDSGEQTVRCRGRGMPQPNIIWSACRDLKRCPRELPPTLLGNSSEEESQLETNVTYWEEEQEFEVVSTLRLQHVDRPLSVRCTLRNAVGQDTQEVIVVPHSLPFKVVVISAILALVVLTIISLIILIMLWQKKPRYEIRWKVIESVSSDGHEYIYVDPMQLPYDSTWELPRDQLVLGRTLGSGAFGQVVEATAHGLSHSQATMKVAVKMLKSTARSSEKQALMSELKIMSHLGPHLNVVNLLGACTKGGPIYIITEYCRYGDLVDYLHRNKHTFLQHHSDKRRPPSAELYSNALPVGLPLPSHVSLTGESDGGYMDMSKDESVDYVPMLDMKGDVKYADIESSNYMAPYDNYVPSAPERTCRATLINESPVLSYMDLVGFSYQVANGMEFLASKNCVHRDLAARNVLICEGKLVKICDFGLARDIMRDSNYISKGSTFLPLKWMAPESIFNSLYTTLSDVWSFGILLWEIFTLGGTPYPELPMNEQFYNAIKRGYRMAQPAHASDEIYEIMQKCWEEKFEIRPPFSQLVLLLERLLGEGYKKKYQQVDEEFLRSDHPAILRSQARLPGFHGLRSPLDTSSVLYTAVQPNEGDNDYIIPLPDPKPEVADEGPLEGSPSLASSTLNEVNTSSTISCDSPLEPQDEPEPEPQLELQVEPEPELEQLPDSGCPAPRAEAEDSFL
Chain of PIM1 (P11309 whole entry): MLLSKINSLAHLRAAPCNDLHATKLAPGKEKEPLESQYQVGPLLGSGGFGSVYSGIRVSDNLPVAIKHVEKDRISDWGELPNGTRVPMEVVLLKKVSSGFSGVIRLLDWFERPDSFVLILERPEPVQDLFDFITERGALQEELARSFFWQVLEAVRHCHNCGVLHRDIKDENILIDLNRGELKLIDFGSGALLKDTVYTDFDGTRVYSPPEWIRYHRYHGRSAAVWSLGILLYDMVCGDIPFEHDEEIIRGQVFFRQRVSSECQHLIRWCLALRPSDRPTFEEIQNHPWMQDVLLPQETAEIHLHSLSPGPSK
Chain of IKBKB (IKK beta) (O14920 whole entry): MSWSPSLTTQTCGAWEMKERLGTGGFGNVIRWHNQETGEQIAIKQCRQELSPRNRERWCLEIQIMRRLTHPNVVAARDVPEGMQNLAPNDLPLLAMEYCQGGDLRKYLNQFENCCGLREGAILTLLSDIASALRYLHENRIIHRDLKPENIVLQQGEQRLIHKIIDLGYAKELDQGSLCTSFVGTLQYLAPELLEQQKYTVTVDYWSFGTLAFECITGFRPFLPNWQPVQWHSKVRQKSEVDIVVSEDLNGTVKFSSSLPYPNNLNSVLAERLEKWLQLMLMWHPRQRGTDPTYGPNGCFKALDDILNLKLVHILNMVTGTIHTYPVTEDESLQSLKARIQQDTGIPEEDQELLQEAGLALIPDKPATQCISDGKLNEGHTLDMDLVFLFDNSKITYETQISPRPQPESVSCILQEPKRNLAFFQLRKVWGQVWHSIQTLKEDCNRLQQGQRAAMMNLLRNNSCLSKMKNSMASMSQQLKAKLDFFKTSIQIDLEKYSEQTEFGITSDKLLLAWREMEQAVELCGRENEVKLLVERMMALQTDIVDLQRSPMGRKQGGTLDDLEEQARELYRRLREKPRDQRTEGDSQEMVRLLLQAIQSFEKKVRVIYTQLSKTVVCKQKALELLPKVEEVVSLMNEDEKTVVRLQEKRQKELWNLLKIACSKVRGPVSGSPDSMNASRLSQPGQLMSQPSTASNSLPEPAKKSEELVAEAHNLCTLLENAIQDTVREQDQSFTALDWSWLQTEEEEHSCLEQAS

O=c1c2cnc(Nc3ccc(N4CCNCC4)cc3)nc2ccn1-c1c(Cl)cccc1Cl [Example 1, 6-(2,6-Dichlorophenyl)-2-((4-(piperazin-1-yl)phenyl)amino)pyrido[4,3-d]pyrimidin-5(6H)-one]
IC50 [1]: ≥ 1000 nM
microsomal CLint at 1 μM [2]: ≤ 20 µL/min/mg
Inhibition ACVR1B (ALK4) [3]: − (Inhibition <75% @ 300-350 nM)
Inhibition BTK [4]: − (Inhibition <75% @ 300-350 nM)
Inhibition CHEK1 (CHK1) [5]: − (Inhibition <75% @ 300-350 nM)
Inhibition EGFR (ErbB1) [6]: − (Inhibition <75% @ 300-350 nM)
Inhibition IKBKB (IKK beta) [7]: − (Inhibition <75% @ 300-350 nM)
Inhibition IRAK4 [8]: − (Inhibition <75% @ 300-350 nM)
Inhibition JAK3 [9]: − (Inhibition <75% @ 300-350 nM)
Inhibition MAPK14 (p38 alpha) [10]: − (Inhibition <75% @ 300-350 nM)
Inhibition MET (cMet) [11]: − (Inhibition <75% @ 300-350 nM)
Inhibition NEK1 [12]: − (Inhibition <75% @ 300-350 nM)
Inhibition PAK4 [13]: − (Inhibition <75% @ 300-350 nM)
Inhibition PDGFRB (PDGFR beta) [14]: − (Inhibition <75% @ 300-350 nM)
Inhibition PIM1 [15]: − (Inhibition <75% @ 300-350 nM)
Inhibition ROCK1 [16]: − (Inhibition <75% @ 300-350 nM)
Inhibition SRC [17]: − (Inhibition <75% @ 300-350 nM)
